In patent US6410740B1, “Heterocyclylmethyl-substituted pyrazol derivatives” (Bayer Aktiengesellschaft, priority 1996, dated 2002):
Values after ≈ are worked out from the molar mass of the structure shown. Where two headings read alike, the source gives them in different places.

Key:
[1] = system: rabbit aortic rings precontracted with phenylephrine; test: Vessel-relaxing action in vitro on isolated aortic rings precontracted with phenylephrine; conditions: Oryctolagus cuniculus, rabbit aorta rings, phenylephrine contraction
Method: Vessel-relaxing Action in vitro
Rings 1.5 mm wide of an aorta isolated from a rabbit are introduced individually, under pretension, in 5 ml organ baths with Krebs-Henseleit solution warmed to 37° C. and gassed with carbogen. The contraction force is amplified and digitalized and recorded in parallel on a line recorder. To generate a contraction, phenylephrine is added cumulatively to the bath in an increasing concentration.
(§1) After several control cycles, the substance to be investigated is investigated in each further pass in each case in an increasing dosage, and a comparison is made with the level of the contraction achieved in the last preliminary pass. The concentration necessary to reduce the level of the control value by 50% (IC50) is calculated from this. The standard application volume is 5 μl.
as §1, with “this.” for “this. The standard application volume is 5 μl.”
The standard application volume is 5 μl.

[2] = system: human platelets stimulated with collagen; test: Inhibition of platelet aggregation in vitro (collagen-induced, platelet-rich plasma); type: cell-based; conditions: human PRP, 37° C.
Method: Inhibition of Platelet Aggregation in vitro
To determine the platelet aggregation-inhibiting action, blood from healthy subjects of both sexes was used. One part of 3.8% strength aqueous sodium citrate solution was admixed to 9 parts of blood as an anticoagulant. Platelet-richer citrate plasma (PRP) is obtained from this blood by means of centrifugation.
(§2) For the investigations, 445 μl of PRP and 5 μl of the active compound solution were preincubated in a water-bath at 37° C. The platelet aggregation was then determined in an aggregometer at 37° C. using the turbidometric method. For this, 50 μl of collagen, an aggregation-inducing agent, were added to the preincubated sample and the change in optical density was recorded. For the quantitative evaluation, the maximum aggregation response was determined and the percentage inhibition compared with the control was calculated therefrom.
Inhibition of Platelet Pggregation in vitro
as §2, with “For these investigations, 445” for “For the investigations, 445”

[3] = target: T1, soluble guanylate cyclase (Sus scrofa, UniProt A0A4X1U7N1+A0ACM8Q7I6); test: Stimulation of soluble guanylate cyclase in primary endothelial cells (intracellular cGMP, radioimmunological); type: cell-based; conditions: 10 min, test substance 1 μM, 10-minute incubation, primary pig aortic endothelial cells, with or without SNP 1 μM (not stated which), read-out: % increase in cGMP
T1 construct: endogenous in cells; host or cells: primary endothelial cells from pig aorta
T1 sequence (A0A4X1U7N1 1-619): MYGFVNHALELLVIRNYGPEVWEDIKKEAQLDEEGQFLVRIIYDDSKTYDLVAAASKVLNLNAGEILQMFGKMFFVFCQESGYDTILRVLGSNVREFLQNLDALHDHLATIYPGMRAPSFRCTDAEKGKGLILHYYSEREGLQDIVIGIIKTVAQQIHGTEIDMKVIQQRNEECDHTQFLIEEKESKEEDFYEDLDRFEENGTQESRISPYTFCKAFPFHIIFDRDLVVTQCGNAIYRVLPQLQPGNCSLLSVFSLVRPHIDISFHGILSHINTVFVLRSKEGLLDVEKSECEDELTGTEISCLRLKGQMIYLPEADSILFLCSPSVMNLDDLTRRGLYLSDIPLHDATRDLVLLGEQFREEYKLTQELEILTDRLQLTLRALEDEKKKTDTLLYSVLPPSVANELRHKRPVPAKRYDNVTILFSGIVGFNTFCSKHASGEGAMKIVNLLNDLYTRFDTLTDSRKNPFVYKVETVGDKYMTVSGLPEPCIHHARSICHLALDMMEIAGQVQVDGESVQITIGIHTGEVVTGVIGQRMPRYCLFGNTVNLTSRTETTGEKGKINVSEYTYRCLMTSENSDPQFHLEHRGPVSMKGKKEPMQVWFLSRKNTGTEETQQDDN
T1 sequence (A0ACM8Q7I6 1-688): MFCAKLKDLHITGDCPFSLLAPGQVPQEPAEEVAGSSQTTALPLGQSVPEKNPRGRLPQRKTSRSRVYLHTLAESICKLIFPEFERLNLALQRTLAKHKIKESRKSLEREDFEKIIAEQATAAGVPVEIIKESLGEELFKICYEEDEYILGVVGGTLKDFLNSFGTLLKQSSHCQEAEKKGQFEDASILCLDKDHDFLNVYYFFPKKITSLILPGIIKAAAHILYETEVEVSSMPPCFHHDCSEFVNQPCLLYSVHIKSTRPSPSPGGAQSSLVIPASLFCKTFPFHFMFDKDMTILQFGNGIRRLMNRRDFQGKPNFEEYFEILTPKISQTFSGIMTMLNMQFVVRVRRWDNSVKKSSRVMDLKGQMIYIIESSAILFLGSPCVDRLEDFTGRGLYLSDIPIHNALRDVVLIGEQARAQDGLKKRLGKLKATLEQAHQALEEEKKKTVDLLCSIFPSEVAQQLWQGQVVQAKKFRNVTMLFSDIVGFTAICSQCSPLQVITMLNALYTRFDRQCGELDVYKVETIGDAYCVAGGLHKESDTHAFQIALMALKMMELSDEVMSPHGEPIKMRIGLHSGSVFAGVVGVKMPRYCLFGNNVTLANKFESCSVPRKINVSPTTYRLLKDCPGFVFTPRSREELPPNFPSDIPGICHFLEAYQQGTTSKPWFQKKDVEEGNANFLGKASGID
Method: Stimulation of Soluble Guanylate Cyclase in Primary Endothelial Cells
(§3) Primary endothelial cells were isolated from pig aortas by treatment with collagenase solution. The cells were then cultured in a culture medium until confluence was reached. For the investigations, the cells were subjected to passaging, sown in cell culture plates and subcultured until confluence was reached. To stimulate the endothelial guanylate cyclase, the culture medium was suctioned off and the cells were washed once with Ringer's solution and incubated in stimulation buffer with or without an NO donor (sodium nitroprusside, SNP, 1 μM). Thereafter, the test substances (final concentration 1 μM) were pipetted onto the cells. At the end of the 10-minute incubation period, the buffered solution was suctioned off and the cells were lysed at −20° C. for 16 hours. The intracellular cGMP was then determined radioimmunologically.
as §3, with “sucked” for “suctioned”
as §3, with “without” for “without an”, “buffer” for “buffered”

Compound | IC50 ([1]; iv, embodiment IV) [µM] | activation at 1 µM ([3]; embodiment IV) [%] | further results
OCc1cccc(-c2nn(Cc3ccccc3F)c3ccccc23)n1 [II-62] |  |  | melting point: 99 °C; IC50 ([1]; embodiment II): 13 µM
OCc1cnc(-c2nn(Cc3ccccc3)c3ccccc23)o1 [III-71, 1-Benzyl-3-(5-hydroxymethyl-oxazol-2-yl)-indazole] |  |  | IC50 ([1]; embodiment III): 5 µM; IC50 ([2]; embodiment III): 50 µg/mL (≈ 164 µM); activation at 1 µM ([3]; embodiment III): 315%
CCOC(=O)c1csc(-c2nn(Cc3ccccc3)c3ccccc23)n1 [III-72, Ethyl 2-(1-benzyl-indazol-3-yl)-thiazole-4-carboxylate] |  |  | IC50 ([2]; embodiment III): 1 µg/mL (≈ 2.75 µM)
N#Cc1ccccc1Cn1nc(-c2ccc(CO)o2)c2ccccc21 [IV-136, 1-(^2-Cyanobenzyl)-3-(5-hydroxymethylfuran-2-yl)-indazole] | 7.2 | > 1000 | IC50 ([2]; embodiment IV): 30 µg/mL (≈ 91.1 µM)
OCc1coc(-c2nn(Cc3ccccc3)c3ccccc23)c1 [IV-164] | 12 | 289 | 
OCc1ccc(-c2nn(Cc3c(F)cccc3F)c3ccccc23)o1 [IV-165] | 29 | 256 | 
Cc1cc(-c2nn(Cc3ccccc3)c3ccccc23)oc1CO [IV-179] | 11 | 921 | 
Cc1nc(-c2nn(Cc3ccccc3F)c3ccccc23)oc1CN1C(=O)c2ccccc2C1=O [Process Example 11, 2-[1-(2-fluorobenzyl)-indazole-3-yl]-4-methyl-5-(N-phthalimidomethyl)-oxazole] |  |  | melting point: 175 to 177 °C
